Measured values published in patent US20210147343A1 (priority 2018, published 2021).

Tests used:
[1] = target: T1, mu opioid receptor (MOR) (Homo sapiens, UniProt P35372); test: MOR cAMP agonist assay
[2] = target: T2, kappa opioid receptor (KOR) (Homo sapiens, UniProt P41145); test: cell-based; details: kOR cAMP IC50, CHO-K1 cells expressing kOR; after activation with dynorphin B
T2 construct: host or cells: CHO-K1
Source text: KOR cAMP Antagonist Assay

[3] = system: Male Sprague-Dawley rats; test: Hot plate assay; assay type: in vivo; details: rat, SC
Protocol: Male Sprague-Dawley rats weighing 275-300 grams were used in the study, n=8-10 per group. Animals are injected SC with 0.9% normal saline solution. At 15, 45, and 80 min after the injection, animals were placed onto a hotplate set to 52 degrees centigrade, and baseline latency is recorded (baseline latency=average time to 2nd withdrawal response consisting of either a lick of a rear paw, shaking a rear paw, backwards walking or jumping). A day later animals were injected SC with test compounds either in vehicle solution, or with a mix of compounds in solution. Next the test latency was recorded (test latency=time to withdrawal on the hotplate measured at 15, 45, 80, 120, 180 and 240 min using the procedure described). Times were then converted to % maximum possible effect (% MPE)=(test_latecy−baseline_latency)/(30 sec-baseline_latency); where 30 sec is the cutoff where the animal is removed if no response ifs observed as it is the time point at which injury is expected to occur.

[4] = target: T1, mu opioid receptor (MOR); test: MOR cAMP antagonist assay; assay type: cell-based; set-up: host or cells: CHO-K1
Source text: MOR cAMP Antagonist Assay

T1 sequence (P35372 whole entry): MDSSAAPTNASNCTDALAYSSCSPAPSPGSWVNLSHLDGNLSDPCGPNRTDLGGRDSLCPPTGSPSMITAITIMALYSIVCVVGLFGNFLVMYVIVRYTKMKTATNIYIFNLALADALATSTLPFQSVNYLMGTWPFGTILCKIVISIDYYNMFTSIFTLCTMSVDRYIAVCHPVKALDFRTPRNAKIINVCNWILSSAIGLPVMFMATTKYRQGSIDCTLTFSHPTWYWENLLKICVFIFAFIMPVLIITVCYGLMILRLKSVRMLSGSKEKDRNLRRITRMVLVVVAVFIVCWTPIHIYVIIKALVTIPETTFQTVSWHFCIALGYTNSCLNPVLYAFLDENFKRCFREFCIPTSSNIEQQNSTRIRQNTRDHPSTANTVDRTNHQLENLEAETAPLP
T2 sequence (P41145 whole entry): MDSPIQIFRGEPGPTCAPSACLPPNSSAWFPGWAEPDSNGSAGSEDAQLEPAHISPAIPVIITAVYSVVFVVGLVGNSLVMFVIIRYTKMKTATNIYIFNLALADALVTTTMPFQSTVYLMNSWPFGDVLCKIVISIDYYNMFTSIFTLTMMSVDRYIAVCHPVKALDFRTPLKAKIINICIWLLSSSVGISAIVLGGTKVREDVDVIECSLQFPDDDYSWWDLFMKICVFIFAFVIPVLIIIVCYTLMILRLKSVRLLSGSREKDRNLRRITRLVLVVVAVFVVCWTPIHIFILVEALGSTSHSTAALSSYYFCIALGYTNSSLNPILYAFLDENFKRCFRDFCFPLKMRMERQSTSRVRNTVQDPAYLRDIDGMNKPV

For `CN(C)[C@H](CNC(=O)[C@@H]1C[C@]1(C)c1ccccc1)Cc1ccc(O)cc1Cl` [Compound B-15, (1R,2S)—N—((S)-3-(2-chloro-4-hydroxyphenyl)-2-(dimethylamino)-propyl)-2-methyl-2-phenylcyclopropane-1-carboxamide], the EC50 [1] was greater than 1000 nM, the IC50 [2] was greater than 1000 nM and the “effect on the analgesic activity of agonist Compound B-56 in the hotplate test” value ([3]; co-dosed with Compound B-56, FIG. 1) was “blocks”. The “effect on its own in the hotplate test” value ([3]; dosed alone, FIG. 1) was “no effect”.

For `Cc1cc(O)ccc1C[C@@H](CNC(=O)[C@@H]1C[C@]1(C)c1ccccc1)N(C)C` [Compound B-48, (1R,2S)—N—((S)-2-(dimethylamino)-3-(4-hydroxy-2-methylphenyl)propyl)-2-methyl-2-phenylcyclopropane-1-carboxamide], the EC50 [1] was greater than 1000 nM, the IC50 [2] was less than 100 nM and the IC50 [4] was less than 100 nM.

With `Cc1cc(O)ccc1C[C@@H](CNC(=O)[C@@H]1C[C@@]1(C)c1ccccc1)N(C)C` [Compound B-56, (1R,2R)—N—((S)-2-(dimethylamino)-3-(4-hydroxy-2-methylphenyl)propyl)-2-methyl-2-phenylcyclopropane-1-carboxamide] the EC50 [1] was less than 100 nM, the IC50 [2] was less than 100 nM and the “analgesic activity in the hotplate test (time to exhibit a withdrawal response)” value ([3]; hotplate 52 degrees centigrade, FIG. 1) was “analgesic”.

Work on `CN(C)[C@H](CNC(=O)[C@@H]1C[C@]1(C)c1ccccc1)Cc1ccc(O)cc1F` [Compound B-31, (1R,2S)—N—((S)-2-(dimethylamino)-3-(2-fluoro-4-hydroxyphenyl)propyl)-2-methyl-2-phenylcyclopropane-1-carboxamide] yielded an EC50 [1] of less than 100 nM, an IC50 [2] of less than 100 nM and an IC50 [4] of less than 100 nM.

For `CCN(CC)[C@H](CNC(=O)[C@@H]1C[C@]1(C)c1ccccc1)Cc1ccc(O)c(C)c1` [Compound B-41, (1R,2S)—N—((S)-2-(diethylamino)-3-(4-hydroxy-3-methylphenyl)propyl)-2-methyl-2-phenylcyclopropane-1-carboxamide], the EC50 [1] was less than 100 nM, the IC50 [2] was 100 to 1000 nM and the IC50 [4] was 100 to 1000 nM.
